From US8962596B2 (Array BioPharma Inc., priority 2010, dated 2015)

Experiments:
Format in all cases: biochemical
Human Tyk2 kinase domain = molecular target: T1, Human Tyk2 kinase domain (Homo sapiens, UniProt P29597); test: Tyk2 Inhibition Assay (Omnia kinase fluorescence peptide substrate assay); conditions: averaged IC50 ranges; assay of Example A; 10 μM (Km app) or 1 mM ATP, 2 nM Tyk2
T1 construct: comprising amino acids 886 to 1187 with 10 additional histidine residues; 10xHis (histidine tag) (C, cleaved yes); made in house
T1 sequence (P29597 886-1187): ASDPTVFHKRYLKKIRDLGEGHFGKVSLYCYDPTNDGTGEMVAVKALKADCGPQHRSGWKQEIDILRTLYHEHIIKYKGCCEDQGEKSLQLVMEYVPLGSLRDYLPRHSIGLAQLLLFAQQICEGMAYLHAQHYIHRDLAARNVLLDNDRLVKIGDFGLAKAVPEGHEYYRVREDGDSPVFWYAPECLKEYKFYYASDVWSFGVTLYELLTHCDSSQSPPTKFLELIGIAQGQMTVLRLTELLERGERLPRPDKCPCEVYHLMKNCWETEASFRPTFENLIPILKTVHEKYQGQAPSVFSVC
Procedure, shortened: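 2 nM His-tag-cleaved kinase domain (aa 886–1187) with 8 μM Omnia Y12 peptide, 10 μM (Km app) or 1 mM ATP, pH 7.4 HEPES/10 mM MgCl2, 2% DMSO. Fluorescence (ex 360/em 485 nm) every 50 s for 45 min; IC50 from 4-parameter fit of POC, top dose 10 μM.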

JAK1 = molecular target: T2, JAK1 (Homo sapiens, UniProt P23458); test: JAK1 Inhibition Assay (Omnia kinase fluorescence peptide substrate assay); conditions: averaged IC50 ranges; assay of Example B; 40 μM (Km app) or 1 mM ATP, 15 nM JAK1
T2 construct: purchased Invitrogen Corporation, Carlsbad, Calif; PV4775

JAK2 = molecular target: T3, JAK2 (Homo sapiens, UniProt O60674); test: JAK2 Inhibition Assay (Omnia kinase fluorescence peptide substrate assay); conditions: averaged IC50 ranges; assay of Example C; 25 μM (Km app) or 1 mM ATP, 5 nM JAK2
T3 construct: purchased Invitrogen Corporation, Carlsbad, Calif; PV4288
Procedure, shortened: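 5 nM JAK2 phosphorylated 10 μM Omnia Y7 peptide with ATP at 25 μM (Km app) or 1 mM, in 25 mM HEPES pH 7.4, 10 mM MgCl2, 0.01% Triton X-100, 1 mM DTT, 2% DMSO. Fluorescence (360/485 nm) was read every 50 s for 45 min. 10-point 3-fold series from 10 μM; POC versus uninhibited and background controls, 4-parameter logistic IC50.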

JAK3 = molecular target: T4, JAK3 (Homo sapiens, UniProt P52333); test: JAK3 Inhibition Assay (Omnia kinase fluorescence peptide substrate assay); conditions: averaged IC50 ranges; assay of Example D; 10 μM (Km app) or 1 mM ATP, 2.5 nM JAK3
T4 construct: purchased Invitrogen Corporation, Carlsbad, Calif; PV4080
T4 sequence (P52333 1-1124): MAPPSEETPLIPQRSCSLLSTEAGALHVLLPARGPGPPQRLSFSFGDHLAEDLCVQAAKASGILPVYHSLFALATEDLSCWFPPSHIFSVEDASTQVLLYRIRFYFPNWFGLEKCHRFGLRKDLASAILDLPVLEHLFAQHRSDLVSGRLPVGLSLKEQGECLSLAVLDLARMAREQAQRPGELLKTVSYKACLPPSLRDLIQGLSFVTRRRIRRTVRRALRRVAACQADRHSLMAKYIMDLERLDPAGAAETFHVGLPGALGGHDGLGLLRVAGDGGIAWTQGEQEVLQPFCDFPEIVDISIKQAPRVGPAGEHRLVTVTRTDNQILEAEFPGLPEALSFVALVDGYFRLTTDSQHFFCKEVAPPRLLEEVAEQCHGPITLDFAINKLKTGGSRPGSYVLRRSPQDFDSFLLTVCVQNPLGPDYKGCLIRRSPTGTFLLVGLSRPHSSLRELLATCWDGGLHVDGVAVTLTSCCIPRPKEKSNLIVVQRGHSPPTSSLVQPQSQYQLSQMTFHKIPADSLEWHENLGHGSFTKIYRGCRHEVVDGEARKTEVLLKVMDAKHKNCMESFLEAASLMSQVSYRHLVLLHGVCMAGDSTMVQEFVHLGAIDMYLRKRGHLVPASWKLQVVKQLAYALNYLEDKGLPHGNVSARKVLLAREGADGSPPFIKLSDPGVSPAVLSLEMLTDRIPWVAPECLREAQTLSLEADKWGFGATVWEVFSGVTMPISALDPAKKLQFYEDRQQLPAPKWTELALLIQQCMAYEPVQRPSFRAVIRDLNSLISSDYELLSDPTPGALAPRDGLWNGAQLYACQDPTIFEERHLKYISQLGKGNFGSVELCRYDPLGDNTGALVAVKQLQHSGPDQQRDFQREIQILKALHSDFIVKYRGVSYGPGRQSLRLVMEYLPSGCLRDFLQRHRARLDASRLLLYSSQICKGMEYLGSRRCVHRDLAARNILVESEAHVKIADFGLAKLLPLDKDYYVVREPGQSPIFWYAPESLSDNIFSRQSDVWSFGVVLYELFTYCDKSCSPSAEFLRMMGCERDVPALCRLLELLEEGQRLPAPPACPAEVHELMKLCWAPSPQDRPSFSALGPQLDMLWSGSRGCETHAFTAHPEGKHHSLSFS
Procedure, shortened: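 Kinase at 2.5 nM with 10 µM Omnia Y7 peptide and 10 µM (Km app) or 1 mM ATP in 25 mM HEPES pH 7.4, 10 mM MgCl2, 1 mM DTT, 0.01% Triton X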

T2 sequence (P23458 whole entry): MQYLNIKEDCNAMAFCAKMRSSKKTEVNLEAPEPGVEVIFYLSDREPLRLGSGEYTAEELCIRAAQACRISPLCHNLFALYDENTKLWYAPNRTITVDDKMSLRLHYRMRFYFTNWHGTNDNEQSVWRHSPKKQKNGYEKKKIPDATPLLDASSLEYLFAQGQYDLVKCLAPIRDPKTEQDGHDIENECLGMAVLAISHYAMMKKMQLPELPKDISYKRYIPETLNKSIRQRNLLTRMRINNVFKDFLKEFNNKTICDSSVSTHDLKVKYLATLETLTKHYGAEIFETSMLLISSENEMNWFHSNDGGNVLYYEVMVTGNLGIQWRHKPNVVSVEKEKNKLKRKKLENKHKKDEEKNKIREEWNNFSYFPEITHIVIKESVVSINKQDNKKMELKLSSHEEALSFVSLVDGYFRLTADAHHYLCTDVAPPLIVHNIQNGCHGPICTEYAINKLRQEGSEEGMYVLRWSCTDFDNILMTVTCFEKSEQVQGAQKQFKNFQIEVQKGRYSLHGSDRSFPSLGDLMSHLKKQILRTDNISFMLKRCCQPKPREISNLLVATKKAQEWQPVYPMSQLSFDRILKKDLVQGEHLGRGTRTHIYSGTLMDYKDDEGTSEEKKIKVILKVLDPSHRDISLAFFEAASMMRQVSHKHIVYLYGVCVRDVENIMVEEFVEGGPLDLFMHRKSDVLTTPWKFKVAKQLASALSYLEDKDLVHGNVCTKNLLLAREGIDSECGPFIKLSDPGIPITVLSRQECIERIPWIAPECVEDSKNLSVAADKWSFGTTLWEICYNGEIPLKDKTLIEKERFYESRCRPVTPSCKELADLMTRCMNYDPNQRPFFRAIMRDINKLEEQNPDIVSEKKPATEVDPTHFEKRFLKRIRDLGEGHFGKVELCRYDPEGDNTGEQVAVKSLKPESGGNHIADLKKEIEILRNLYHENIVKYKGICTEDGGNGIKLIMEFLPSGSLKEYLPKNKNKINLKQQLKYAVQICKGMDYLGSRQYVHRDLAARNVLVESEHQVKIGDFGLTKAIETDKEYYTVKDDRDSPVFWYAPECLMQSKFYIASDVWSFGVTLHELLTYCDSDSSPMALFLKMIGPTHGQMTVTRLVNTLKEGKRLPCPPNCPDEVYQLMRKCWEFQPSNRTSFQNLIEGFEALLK
T3 sequence (O60674 whole entry): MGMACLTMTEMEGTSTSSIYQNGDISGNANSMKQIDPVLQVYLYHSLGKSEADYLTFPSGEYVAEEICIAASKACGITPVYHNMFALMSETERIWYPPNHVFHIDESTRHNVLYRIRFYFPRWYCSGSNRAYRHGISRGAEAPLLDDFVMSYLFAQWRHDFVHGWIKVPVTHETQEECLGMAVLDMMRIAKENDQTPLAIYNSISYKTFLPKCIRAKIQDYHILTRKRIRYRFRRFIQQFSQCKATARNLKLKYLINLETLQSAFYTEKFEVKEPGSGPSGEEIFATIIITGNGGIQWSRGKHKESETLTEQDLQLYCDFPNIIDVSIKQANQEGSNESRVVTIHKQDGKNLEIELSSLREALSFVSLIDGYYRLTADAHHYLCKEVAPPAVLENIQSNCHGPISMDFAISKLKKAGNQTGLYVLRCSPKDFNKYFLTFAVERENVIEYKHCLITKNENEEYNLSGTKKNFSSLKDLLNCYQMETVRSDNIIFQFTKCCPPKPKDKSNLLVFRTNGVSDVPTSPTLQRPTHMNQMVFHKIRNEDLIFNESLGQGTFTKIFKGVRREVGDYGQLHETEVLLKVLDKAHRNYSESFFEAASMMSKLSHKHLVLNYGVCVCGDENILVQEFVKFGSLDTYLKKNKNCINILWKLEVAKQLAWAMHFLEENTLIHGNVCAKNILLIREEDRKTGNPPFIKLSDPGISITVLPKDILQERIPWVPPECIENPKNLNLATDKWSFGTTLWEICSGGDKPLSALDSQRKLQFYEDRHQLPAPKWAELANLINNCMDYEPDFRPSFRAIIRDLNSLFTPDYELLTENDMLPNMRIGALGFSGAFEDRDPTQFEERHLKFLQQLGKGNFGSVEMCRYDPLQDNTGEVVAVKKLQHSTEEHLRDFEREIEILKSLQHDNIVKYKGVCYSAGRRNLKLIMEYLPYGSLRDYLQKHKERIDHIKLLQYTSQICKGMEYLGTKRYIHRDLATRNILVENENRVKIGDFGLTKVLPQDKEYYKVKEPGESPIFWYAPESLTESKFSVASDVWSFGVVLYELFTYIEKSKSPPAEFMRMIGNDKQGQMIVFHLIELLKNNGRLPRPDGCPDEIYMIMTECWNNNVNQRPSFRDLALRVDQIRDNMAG

Row | SMILES | IC50 (Human Tyk2 kinase domain) | IC50 (JAK1) | IC50 (JAK2) | IC50 (JAK3)
1 | Cc1ncc(-c2cc3nccn3c(-c3cnn(C4(CC#N)CN(S(=O)(=O)C(F)(F)F)C4)c3)n2)s1 [Example 139, 2-(3-(4-(7-(2-methylthiazol-5-yl)imidazo[1,2-c]pyrimidin-5-yl)-1H-pyrazol-1-yl)-1-(trifluoromethylsulfonyl)azetidin-3-yl)acetonitrile] | < 10 nM | 10 to 100 nM | 10 to 100 nM | > 1000 nM
2 | Cn1cc(-c2cc3nccn3c(-c3cnn(C4(CC#N)CCCCC4)c3)n2)cn1 [Example 22, 2-(1-(4-(7-(1-methyl-1H-pyrazol-4-yl)imidazo[1,2-c]pyrimidin-5-yl)-1H-pyrazol-1-yl)cyclohexyl)acetonitrile] | 10 to 100 nM | 100 to 1000 nM | 100 to 1000 nM | > 1000 nM
3 | CCn1cc(-c2cc3nccn3c(-c3cnn(C(CC#N)C4CC4)c3)n2)cn1 (centres unmarked) [Example 40, 3-cyclopropyl-3-(4-(7-(1-ethyl-1H-pyrazol-4-yl)imidazo[1,2-c]pyrimidin-5-yl)-1H-pyrazol-1-yl)propanenitrile] | < 10 nM | 100 to 1000 nM | 10 to 100 nM | 100 to 1000 nM
4 | Cn1cc(-c2cc3nccn3c(-c3cnn(C4(CC#N)CCCC4)c3)n2)cn1 [Example 23, 2-(1-(4-(7-(1-methyl-1H-pyrazol-4-yl)imidazo[1,2-c]pyrimidin-5-yl)-1H-pyrazol-1-yl)cyclopentyl)acetonitrile] | 10 to 100 nM | 100 to 1000 nM | 100 to 1000 nM | > 1000 nM
5 | CCS(=O)(=O)N1CC(CC#N)(n2cc(-c3nc(-c4cnn(C)c4)cc4nccn34)cn2)C1 [Example 97, 2-(1-(ethylsulfonyl)-3-(4-(7-(1-methyl-1H-pyrazol-4-yl)imidazo[1,2-c]pyrimidin-5-yl)-1H-pyrazol-1-yl)azetidin-3-yl)acetonitrile] | < 10 nM | 100 to 1000 nM | 10 to 100 nM | > 1000 nM
6 | Cn1cc(-c2cc3nccn3c(-c3cnn(C(CC#N)C4CC4)c3)n2)cn1 (single isomer, unassigned; enantiomer 1) [Example 3, Enantiomer 1 of 3-cyclopropyl-3-(4-(7-(1-methyl-1H-pyrazol-4-yl)imidazo[1,2-c]pyrimidin-5-yl)-1H-pyrazol-1-yl)propanenitrile (Peak 1)] | 10 to 100 nM | 100 to 1000 nM | 100 to 1000 nM | 100 to 1000 nM
7 | CC(C)n1cc(-c2cc3nccn3c(-c3cnn(C4(CC#N)CN(CC(F)(F)F)C4)c3)n2)cn1 [Example 100, 2-(3-(4-(7-(1-Isopropyl-1-H-pyrazol-4-yl)imidazo[1,2-c]pyrimidin-5-yl)-1H-pyrazol-1-yl)-1-(2,2,2-trifluoroethyl)azetidin-3-yl)acetonitrile] | < 10 nM | 100 to 1000 nM | 10 to 100 nM | > 1000 nM
8 | Cn1cc(-c2cc3nccn3c(-c3cnn(C(CC#N)c4ccccc4Cl)c3)n2)cn1 (centres unmarked) [Example 12, 3-(2-chlorophenyl)-3-(4-(7-(1-methyl-1H-pyrazol-4-yl)imidazo[1,2-c]pyrimidin-5-yl)-1H-pyrazol-1-yl)propanenitrile] | 10 to 100 nM | 10 to 100 nM | 10 to 100 nM | 100 to 1000 nM
9 | N#CCCn1cc(-c2nc(-c3ccc(N4CCOCC4)cc3)cc3nccn23)cn1 [Example 120, 3-(4-(7-(4-morpholinophen-yl)imidazo[1,2-c]pyrimidin-5-yl)-1H-pyrazol-1-yl)propanenitrile] | < 10 nM | 10 to 100 nM | 10 to 100 nM | > 1000 nM
10 | Cn1cc(-c2cc3nccn3c(-c3cnn(C(CC#N)c4ccncc4)c3)n2)cn1 (centres unmarked) [Example 8, 3-(4-(7-(1-methyl-1H-pyrazol-4-yl)imidazo[1,2-c]pyrimidin-5-yl)-1H-pyrazol-1-yl)-3-(pyridin-4-yl)propanenitrile] | 10 to 100 nM | 100 to 1000 nM | 10 to 100 nM | > 1000 nM
11 | Cc1nnc(-c2cc3nccn3c(-c3cnn(C(CC#N)C4CC4)c3)n2)s1 (centres unmarked) [Example 45, 3-Cyclopropyl-3-(4-(7-(5-methyl-1,3,4-thiadiazol-2-yl)imidazo[1,2-c]pyrimidin-5-yl)-1H-pyrazol-1-yl)propanenitrile] | 100 to 1000 nM | > 1000 nM | > 1000 nM | > 1000 nM
12 | Cn1cc(-c2cc3nccn3c(-c3cnn(C(CC#N)CC(C)(C)C)c3)n2)cn1 (centres unmarked) [Example 5] | 10 to 100 nM | 100 to 1000 nM | 100 to 1000 nM | > 1000 nM
13 | CC(C)CN1CC(CC#N)(n2cc(-c3nc(-c4cnn(C)c4)cc4nccn34)cn2)C1 [Example 85, 2-(1-isobutyl-3-(4-(7-(1-methyl-1H-pyrazol-4-yl)imidazo[1,2-c]pyrimidin-5-yl)-1H-pyrazol-1-yl)azetidin-3-yl)acetonitrile] | 10 to 100 nM | 100 to 1000 nM | 100 to 1000 nM | > 1000 nM
14 | C#CCN1CC(CC#N)(n2cc(-c3nc(-c4cnn(C)c4)cc4nccn34)cn2)C1 [Example 76, 2-(3-(4-(7-(1-methyl-1H-pyrazol-4-yl)imidazo[1,2-c]pyrimidin-5-yl)-1H-pyrazol-1-yl)-1-(prop-2-ynyl)azetidin-3-yl)acetonitrile] | 10 to 100 nM | 100 to 1000 nM | 100 to 1000 nM | > 1000 nM
15 | N#CCC(C1CC1)n1cc(-c2nc(C(=O)NC3CCC3)cc3nccn23)cn1 (centres unmarked) [Example 124, 5-(1-(2-Cyano-1-cyclopropylethyl)-1H-pyrazol-4-yl)-N-cyclobutylimidazo[1,2-c]pyrimidine-7-carboxamide] | 100 to 1000 nM | > 1000 nM | > 1000 nM | > 1000 nM
16 | Cn1cc(-c2cc3nccn3c(-c3cnn(C4(CC#N)CC5(CCOCC5)C4)c3)n2)cn1 [Example 150, 2-(2-(4-(7-(1-methyl-1H-pyrazol-4-yl)imidazo[1,2-c]pyrimidin-5-yl)-1H-pyrazol-1-yl)-7-oxaspiro[3.5]nonan-2-yl)acetonitrile] | < 10 nM | 100 to 1000 nM | 10 to 100 nM | > 1000 nM
17 | Cn1cc(-c2cc3nccn3c(-c3cnn(C4(CC#N)CCN(CC(F)(F)F)C4)c3)n2)cn1 (centres unmarked) [Example 135, 2-(3-(4-(7-(1-methyl-1H-pyrazol-4-yl)imidazo[1,2-c]pyrimidin-5-yl)-1H-pyrazol-1-yl)-1-(2,2,2-trifluoroethyl)pyrrolidin-3-yl)acetonitrile] | 10 to 100 nM | 100 to 1000 nM | 10 to 100 nM | 100 to 1000 nM
